Data reported in patent US20120041019A1, “PROTEASE INHIBITORS” (priority 2008, published 2012).
Like-named read-outs stand apart in the source and are kept apart here.

Key:
HIV-1LAI = assay: Cell infectivity assay (HIV-1LAI infection of CEM-T4 cells, p24 readout); assay type: cell-based; conditions: for IC50: Human immunodeficiency virus 1, CEM-T4 cells infected with HIV-1LAI, read-out: HIV PI IC50 (nM) (Cell Infectivity Assay); for loss in potency between cell free assay experiments and cell infectivity assay experiments: comparison of cell free and cell infectivity IC50
Protocol: Procedure—cell infectivity assay. The T-cell-tropic strain HIV-1LAI was used to infect CEM-T4 cells over a dose range of the protease inhibitor compounds. CEM-T4 cells were grown in RPMI 1640 medium supplemented with 10% heat-inactivated fetal bovine serum, penicillin (100 units/mL), streptomycin (100 ug/mL), and polybrene (2 ug/mL) at 37° C. with 5% CO2. The PI dose range covered a total of nine 3:1 dilutions from 5000 nM to less than 1 nM. The tittered virus was added to wells of CEM cells (pre-treated with protease inhibitor [PI] dilution series for 1 h) at a low multiplicity of infection (MOI=0.01) and incubated for 4 h at 37° C. The cells then were washed three times with PBS (GIBCO/BRL), resuspended in triplicate wells each with 1 ml of culture medium containing the same concentration of PI as the initial pre-incubation and further incubated at 37° C. in 5% CO2. Each well of the 24-well plate contains 1×10̂5 cells upon incubation initiation. The cells were fed every two days with fresh PI at the appropriate concentration. Samples were scored for cytopathic effect on day 4, and if consistent CPE was seen throughout the various wells, the supernatants was collected for p24 assay. Otherwise, the cultures were maintained with feeding every other day until day 8, at which point the p24 were initiated.

HIV-1 Protease = molecular target: T1, HIV-1 Protease (Human immunodeficiency virus type 1 group M subtype B, UniProt P04585); assay: Cell free assay (SensoLyte 490 HIV-1 Protease Assay Kit); assay type: biochemical
T1 construct: SensoLyte™ 490 HIV-1 Protease Assay Kit
Protocol: Procedure—cell free assay. The cell free assays were conducted according to the test kit protocol provided with the SensoLyte™ 490 HIV-1 Protease Assay Kit, available from AnaSpec (San Jose, Calif.).

[1] = Table 2 Activity Data, read-out: HIV PI IC50 (nM) (Cell-Free Assay)

Row | Structure (SMILES) | IC50 (HIV-1LAI) [nM] | loss in potency between cell free assay experiments and cell infectivity assay experiments (HIV-1LAI) | IC50 (HIV-1 Protease; [1]) [nM] | further results
1 | CC(C)CN(C[C@@H](O)[C@H](Cc1ccccc1)NC(=O)O[C@H]1CCOC1)S(=O)(=O)c1ccc(N)cc1 [Amprenavir, amprenavir, reference compound] | 171 | significant loss of potency |  | 
2 | CCC(C)(C)C(=O)C(=O)N1CCCCC1C(=O)OC(CCc1ccc(OC)c(OC)c1)c1cccc(OCC(=O)NCCCOC(=O)NC(Cc2ccccc2)C(O)CN(CC(C)C)S(=O)(=O)c2ccc([N+](=O)[O-])cc2)c1 (stereo not drawn) [Compound A1] |  |  | 24 | 
3 | CCC(C)(C)C(=O)C(=O)N1CCCCC1C(=O)OC(CCc1ccc(OC)c(OC)c1)c1cccc(OCC(=O)NCCCOC(=O)NC(Cc2ccccc2)C(O)CN(CC(C)C)S(=O)(=O)c2ccc(N)cc2)c1 (stereo not drawn) [Compound A2] |  |  | 7.3 | 
4 | CCC(C)(C)C(=O)C(=O)N1CCCCC1C(=O)OC(CCc1ccc(OC)c(OC)c1)c1cccc(OCCNC(=O)CCCOC(=O)NC(Cc2ccccc2)C(O)CN(CC(C)C)S(=O)(=O)c2ccc([N+](=O)[O-])cc2)c1 (stereo not drawn) [Compound A3] |  |  | 11.5 | 
5 | CCC(C)(C)C(=O)C(=O)N1CCCCC1C(=O)OC(CCc1ccc(OC)c(OC)c1)c1cccc(OCC(=O)NCCCOC(=O)NC(Cc2ccccc2)C(O)CN(CC(C)C)S(=O)(=O)c2ccc(OC)cc2)c1 (stereo not drawn) [Compound A4] |  |  | 8.4 | 
6 | CCC(C)(C)C(=O)C(=O)N1CCCCC1C(=O)OC(CCc1ccc(OC)c(OC)c1)c1cccc(OCC(=O)NC(C(=O)NC(Cc2ccccc2)C(O)CN(CC(C)C)S(=O)(=O)c2ccc(N)cc2)C(C)C)c1 (stereo not drawn) [Compound A5] | 3.3 | little or no loss in potency |  | IC50 (HIV-1 Protease): 7.9 nM
7 | CCC(C)(C)C(=O)C(=O)N1CCCCC1C(=O)OC(CCc1ccc(OC)c(OC)c1)c1cccc(OCCNC(=O)CCCOC(=O)NC(Cc2ccccc2)C(O)CN(CC(C)C)S(=O)(=O)c2ccc(N)cc2)c1 (stereo not drawn) [Compound A6] |  |  | 5.6 | 
8 | CCC(C)(C)C(=O)C(=O)N1CCCCC1C(=O)OC(CCc1ccc(OC)c(OC)c1)c1cccc(OCC(=O)NC(CC(N)=O)C(=O)NC(Cc2ccccc2)C(CN(CC(C)C)S(=O)(=O)c2ccc(N)cc2)OC)c1 (stereo not drawn) [Compound A7] | 14 | little or no loss in potency |  | IC50 (HIV-1 Protease): 6.6 nM
9 | CCC(C)(C)C(=O)C(=O)N1CCCC[C@H]1C(=O)O[C@H](CCc1ccc(OC)c(OC)c1)c1cccc(NC(=O)CCC(=O)N[C@@H](Cc2ccccc2)[C@H](O)CC(CC(C)C)S(=O)(=O)c2ccc([N+](=O)[O-])cc2)c1 (stereo partly drawn) [Compound A8] |  |  |  | IC50 (HIV-1 Protease; assay not named, follows the cell free data of Table 2, read-out: IC50 value): 339 nM
10 | CCC(C)(C)C(=O)C(=O)N1CCCCC1C(=O)OC(CCc1ccc(OC)c(OC)c1)c1cccc(OCCNC(=O)NC(CC(N)=O)C(=O)NC(Cc2ccccc2)C(CN(CC(C)C)S(=O)(=O)c2ccc(N)cc2)OC)c1 (stereo not drawn) [Compound A9] | 2.3 | little or no loss in potency |  | IC50 (HIV-1 Protease): 1.8 nM
11 | CCC(C)(C)C(=O)C(=O)N1CCCCC1C(=O)OC(CCc1ccc(OC)c(OC)c1)c1cccc(OCCNC(=O)NC(C(=O)NC(Cc2ccccc2)C(O)CN(CC(C)C)S(=O)(=O)c2ccc(N)cc2)C(C)C)c1 (stereo not drawn) [Compound A10] | 48.1 |  |  | IC50 (HIV-1 Protease): 3.9 nM
12 | CCC(C)(C)C(=O)C(=O)N1CCCCC1C(=O)OC(CCc1ccc(OC)c(OC)c1)c1cccc(OCCNC(=O)COCC2OCCC2OC(=O)NC(Cc2ccccc2)C(O)CN(CC(C)C)S(=O)(=O)c2ccc(N)cc2)c1 (stereo not drawn) [Compound A13] |  |  | 51 | 
13 | CCC(C)(C)C(=O)C(=O)N1CCCCC1C(=O)OC(CCc1ccc(OC)c(OC)c1)c1cccc(OCC(=O)NC(CC(N)=O)C(=O)NC(Cc2ccccc2)C(O)CN(CC(C)C)S(=O)(=O)c2ccc(N)cc2)c1 (stereo not drawn) [Compound A14] |  |  | 3.5 | 
14 | Cc1cccc(C)c1OCC(=O)N[C@@H](Cc1ccccc1)[C@@H](O)C[C@H](Cc1ccccc1)NC(=O)[C@H](C(C)C)N1CCCNC1=O [Lopinavir, lopinavir, reference compound] | 18.9 | significant loss of potency |  | IC50 (HIV-1 Protease; Table 1 Activity data, read-out: HIV PI IC50 (nM) (Cell free assay)): 0.9 nM
